Measurements as given in ChEMBL document CHEMBL4296182, “CO-ADD screening of NIH NCI Diversity Set V”.
Converted amounts (≈) assume the structure as drawn.

How the values were obtained:
[1] = tested on: HEK293; experiment: cells; format: functional; conditions: Homo sapiens, ATCC CRL1573, HEK293; ASSAY_TEST Inhibition of Cell Viability; detection method Resazurin; Fluorescence (ex560/em590); MEDIA DMEM with 10% FBS; plate type 384well; TC; CORNING #3712; time 18 hr
[2] = tested on: Cryptococcus neoformans
Description: Antifungal activity against Cryptococcus neoformans H99 ATCC 208821 (CO-ADD:FG_002); MIC in YNB media using NBS plates, by Resazurin OD(600-570)

[3] = tested on: Staphylococcus aureus; experiment: microbe, parasite or virus in culture; conditions: ATCC 43300, 18 h, ASSAY_TEST Inhibition of Bacterial Growth, detection method Absorption (OD600), MEDIA CAMHB, plate type 384well, NBS, CORNING #3640
Description: Antibacterial activity against Staphylococcus aureus MRSA ATCC 43300 (CO-ADD:GP_020); MIC in CAMBH media, using NBS plates, by OD(600)

[4] = tested on: Escherichia coli; experiment: microbe, parasite or virus in culture; conditions: ATCC 25922, 18 h, ASSAY_TEST Inhibition of Bacterial Growth, detection method Absorption (OD600), MEDIA CAMHB, plate type 384well, NBS, CORNING #3640
Description: Antibacterial activity against Escherichia coli ATCC 25922 (CO-ADD:GN_001); MIC in CAMBH media using NBS plates, by OD(600)

[5] = tested on: Klebsiella pneumoniae; experiment: microbe, parasite or virus in culture; conditions: ATCC 700603, 18 h, ASSAY_TEST Inhibition of Bacterial Growth, detection method Absorption (OD600), MEDIA CAMHB, plate type 384well, NBS, CORNING #3640
Description: Antibacterial activity against Klebsiella pneumoniae MDR ATCC 70063 (CO-ADD:GN_003); MIC in CAMBH media using NBS plates, by OD(600)

[6] = tested on: Pseudomonas aeruginosa; experiment: microbe, parasite or virus in culture; conditions: ATCC 27853, 18 h, ASSAY_TEST Inhibition of Bacterial Growth, detection method Absorption (OD600), MEDIA CAMHB, plate type 384well, NBS, CORNING #3640
Description: Antibacterial activity against Pseudomonas aeruginosa ATCC 27853 (CO-ADD:GN_042); MIC in CAMBH media using NBS plates, by OD(600)

[7] = tested on: Acinetobacter baumannii; experiment: microbe, parasite or virus in culture; conditions: ATCC 19606, 18 h, ASSAY_TEST Inhibition of Bacterial Growth, detection method Absorption (OD600), MEDIA CAMHB, plate type 384well, NBS, CORNING #3640
Description: Antibacterial activity against Acinetobacter baumannii ATCC 19606 (CO-ADD:GN_034); MIC in CAMBH media using NBS plates, by OD600

[8] = tested on: Candida albicans; experiment: microbe, parasite or virus in culture; conditions: ATCC 90028, ASSAY_TEST Inhibition of Fungal Growth, detection method Absorption (OD530), plate type 384well, NBS, CORNING #3640
Description: Antifungal activity against Candida albicans ATCC 90028 (CO-ADD:FG_001); MIC in YNB media using NBS plates, by OD630

Row | SMILES | CC50 [1] | MIC [2] | MIC [3] | MIC [4] | MIC [5] | MIC [6] | MIC [7] | MIC [8]
1 | O=C(Nc1ccc(Cl)c(Cl)c1)Nc1ccc([N+](=O)[O-])cn1 | > 10 µM | > 10 µM | > 10 µM | > 10 µM | > 10 µM | > 10 µM | > 10 µM | > 10 µM
2 | C#CC(c1ccccc1)(c1ccccc1)n1ccnc1 | > 10 µM | > 10 µM | > 10 µM | > 10 µM | > 10 µM | > 10 µM | > 10 µM | > 10 µM
3 | c1ccc2nc(OCCN3CC3)ccc2c1 | > 10 µM | > 10 µM | > 10 µM | > 10 µM | > 10 µM | > 10 µM | > 10 µM | > 10 µM
4 | CC(C)=NNc1ncnc2[nH]cnc12 | > 10 µM | 10 µM (≈ 1.9 µg/mL) | > 10 µM | > 10 µM | > 10 µM | > 10 µM | > 10 µM | 2.5 µM (≈ 0.476 µg/mL)
5 | O=[N+]([O-])c1cnc(Sc2ccncn2)s1 | > 10 µM | 5 µM (≈ 1.2 µg/mL) | > 10 µM | > 10 µM | > 10 µM | > 10 µM | > 10 µM | 5 µM (≈ 1.2 µg/mL)
6 | Nc1ccc(S(=O)(=O)Nc2cnc3ccccc3n2)cc1 [SULFAQUINOXALINE] | > 10 µM | > 10 µM | > 10 µM | > 10 µM | > 10 µM | > 10 µM | > 10 µM | > 10 µM
7 | O=C(Nc1ccc(Nc2ccncc2)cc1)c1ccc(Nc2ccnc3ccc([N+](=O)[O-])cc23)cc1[N+](=O)[O-] | > 10 µM | > 10 µM | > 10 µM | > 10 µM | > 10 µM | > 10 µM | > 10 µM | > 10 µM
8 | Cn1ccc(=Nc2ccc(NC(=O)c3ccc(/N=c4\ccn(C)c5ccc([N+](=O)[O-])cc45)cc3)cc2)cc1 | > 10 µM | 5 µM (≈ 2.52 µg/mL) | 10 µM (≈ 5.05 µg/mL) | 10 µM (≈ 5.05 µg/mL) | > 10 µM | > 10 µM | > 10 µM | > 10 µM
9 | O=C(Nc1ccccc1)C1=C(Nc2ccccc2)CSC1 | > 10 µM | > 10 µM | > 10 µM | > 10 µM | > 10 µM | > 10 µM | > 10 µM | > 10 µM
10 | O=C(Nc1ccc(C2=NCCN2)cc1)c1ccc(C(=O)Nc2ccc(C3=NCCN3)cc2)c(Cl)c1 | > 10 µM | > 10 µM | > 10 µM | > 10 µM | > 10 µM | > 10 µM | > 10 µM | > 10 µM
11 | O=[N+]([O-])c1oc2ccc3ccccc3c2c1CCO | 1.13 µM | > 10 µM | 2.5 µM (≈ 0.643 µg/mL) | 5 µM (≈ 1.29 µg/mL) | > 10 µM | > 10 µM | > 10 µM | > 10 µM
12 | Sc1ncnc2c1ncn2C1CCCO1 (stereo not given) | > 10 µM | > 10 µM | > 10 µM | > 10 µM | > 10 µM | > 10 µM | > 10 µM | > 10 µM
13 | Sc1nc2ccc(Cl)cc2s1 | > 10 µM | > 10 µM | > 10 µM | > 10 µM | > 10 µM | > 10 µM | > 10 µM | 10 µM (≈ 2.02 µg/mL)
14 | Nc1ncnc2c1ncn2C1OC(COS(N)(=O)=O)C(O)C1O (stereo not given) | 0.227 µM | > 10 µM | 5 µM (≈ 1.73 µg/mL) | > 10 µM | > 10 µM | > 10 µM | > 10 µM | > 10 µM
15 | O=C1C=C(c2ccccc2)OC(=O)C1C(=O)c1ccccc1 (stereo not given) | > 10 µM | > 10 µM | > 10 µM | > 10 µM | > 10 µM | > 10 µM | > 10 µM | > 10 µM
